In publication PMC3483286, “Functional characterization and evolution of PTH/PTHrP receptors: insights from the chicken” (BMC Evolutionary Biology, 2012):
“Also recorded” adds a separate entry of the source. Where a SMILES comes first, the peptide text is derived from it.

Columns and labels:
[1] = biological target: T1, chicken PTH3R (Gallus gallus, UniProt G8YY06); test: cAMP accumulation in HEK293 cells stably transfected with chicken PTH3R (radioimmunoassay); format: cell-based; conditions: for stimulation of PTH3R cAMP accumulation, comparison in words: chicken 1–34 peptides, 0.1 nM to 100 nM; for Emax (maximal cAMP production, PTH3R): mean ± SEM, 3 experiments in triplicate, above basal levels, * (PTH-L) p < 0.05 compared to other peptides
T1 sequence (G8YY06 1-530): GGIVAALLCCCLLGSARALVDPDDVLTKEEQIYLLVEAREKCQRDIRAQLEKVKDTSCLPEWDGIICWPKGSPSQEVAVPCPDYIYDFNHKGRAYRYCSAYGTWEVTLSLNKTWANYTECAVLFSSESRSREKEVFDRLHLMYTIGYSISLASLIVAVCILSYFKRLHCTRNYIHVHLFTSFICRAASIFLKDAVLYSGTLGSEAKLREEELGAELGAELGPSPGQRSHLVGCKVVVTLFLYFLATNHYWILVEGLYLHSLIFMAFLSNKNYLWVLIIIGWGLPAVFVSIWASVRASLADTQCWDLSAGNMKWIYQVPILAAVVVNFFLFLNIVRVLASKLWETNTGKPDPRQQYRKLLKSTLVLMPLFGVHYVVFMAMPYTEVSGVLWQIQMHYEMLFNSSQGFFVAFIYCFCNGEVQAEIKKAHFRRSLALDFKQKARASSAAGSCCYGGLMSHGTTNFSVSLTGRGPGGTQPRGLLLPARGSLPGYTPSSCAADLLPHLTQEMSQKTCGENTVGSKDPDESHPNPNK
Protocol: (§1) HEK293 cells were maintained in complete Dulbecco’s modified Eagle’s medium (DMEM, Sigma, Spain) with 4.5 g/L glucose, 110 mg/L sodium pyruvate and L-glutamine supplemented with 10% sterile foetal bovine serum and 0.1% penicillin: streptomycin antibiotic mixture (10.000 U:10 mg/ml, Sigma) in a humid 5% CO2 incubator (Sanyo) at 37°C. On the day prior to transfection, 2–3 x10^5 cells were seeded on 6 well-plates (Starsted, Portugal). Linearized constructs (1 μg) and Fugene 6 (Roche, Germany) cell transfection reagent were used to transfect cells according to the manufactures protocol. The transfection complex was incubated for 40 min at room temperature before adding to the cells which were left to grown for 72 hours with daily changes of complete medium. Selection of the stably transfected clones was performed with complete medium supplemented with 800 μg/ml of Geneticin (G418 sulphate, GibcoBRL) and 250 μg/ml sterile filtered 1:100 amphotericin B solution (Sigma, Spain). Cell recovery was monitored daily by constant changes of antibiotic selective medium and the success of gene integration and expression was confirmed by RT-PCR with receptor specific primers.
(§2) The capacity of chicken (1–34) PTH-family peptides to activate the stably transfected PTH1R and PTH3R cell lines was analysed by measuring intracellular cAMP production. Cell line bearing chicken receptors PTH1R and PTH3R were assayed in triplicate in the same assay in 96 well plates (Starstedt). Three independent experiments were performed. Cells were incubated at 37°C in a CO2 incubator and two days prior to the experiments, 2–3 x 10^5 cells were plated and peptide assays were carried out by adding to the recombinant cells decreasing concentrations of test peptide: 100 nM to 0.1 nM of chicken PTH(1–34), PTHrP(1–34) and PTH-L(1–34) or 100 nM of human PTH(1–34) and human TIP39 (Sigma, Spain). Prior to peptide addition, cells were incubated for 40 min with 1 mM 3-isobutyl-1-methylxantine (IBMX, Sigma), which was replaced with fresh medium containing the test peptide in the presence of 1 mM IBMX for a further 40 min. Forskolin (10 μM, Sigma) was used as positive control. Negative control assays were carried out using non-transfected cells in the presence or absence of 100 nM of each peptide. At the end of the assays, cells were washed, ressuspended in 100 μl of 1 x PBS/0.5 M EDTA and immediately frozen at −80°C to promote cell lysis for later quantification of intracellular cAMP production.
(§3) For quantification of intracellular cAMP, cells were lysed using 3 consecutive thaw (42°C)/freeze (−80°C) cycles and the supernatant and cell debris were sonicated for 20 sec on ice. Cells were boiled at 100°C for 10 min to denature proteins and the supernatant was collected after centrifugation for 10 min at 4°C and 19000 g. cAMP was quantified in duplicate by radioimmunoassay using the TRK432 kit (GE Healthcare, UK) following the manufacturer's instructions.
(§4) The results are presented as the mean ± SEM of three independent experiments carried out in triplicate for cAMP experiments and two independent experiments carried out in quadruplicate for Ca^2+ experiments. Data was plotted as the output of cAMP or Ca^2+ at different peptide concentrations for each PTHR using SigmaPlot 9 (Systat, Inc., San Jose, CA). EC50 and confidence limits were calculated using a sigmoidal curve fitting feature within the Single Ligand Binding routine of the Pharmacology module of Sigmaplot. […] To improve curve fitting the maximum empirical stimulation achieved for each receptor was assumed to be at 100 nM for all assays and the curve fitted accordingly.

[2] = biological target: T2, chicken PTH1R (Gallus gallus, UniProt C7S302); test: cAMP accumulation in HEK293 cells stably transfected with chicken PTH1R (radioimmunoassay); format: cell-based; conditions: for accumulation of cAMP with PTH1R, human peptide, in words: human peptides at 10 nM and 100 nM, single experiment in triplicate; for Emax (maximal cAMP production, PTH1R): mean ± SEM, 3 experiments in triplicate, above basal levels, * (PTHrP) p < 0.05 compared to other peptides
Protocol: as §1, §2, §3, §4

[3] = biological target: T2, chicken PTH1R; test: intracellular Ca^2+ accumulation in HEK293 cells transfected with chicken PTH1R (Fluo-4 NW); format: cell-based; conditions: HEK293, Fluo-4 NW; peptide 1 μM and 100 nM screen, decreasing concentrations
Protocol: as §1, with “The transfection complex was incubated for 40 min at room temperature before adding to the cells which were left to grown for 72 hours with daily changes of complete medium. Selection of the stably transfected clones was performed with complete medium supplemented with 800 μg/ml of Geneticin (G418 sulphate, GibcoBRL) and 250 μg/ml sterile filtered 1:100 amphotericin B solution (Sigma, Spain).” left out
(§5) Intracellular Ca^2+ (iCa^2+) release was measured using the Ca^2+ sensitive fluorescent dye Fluo-4 NW (Molecular Probes, Invitrogen) according to manufacturer’s instructions. […] Incubations were carried out with 100 μl of the different peptides concentrations (from 1 μM to 100 nM) and cell fluorescence was measured every 10 sec over 2 minutes after addition of reagent using a Synergy4 (Biotek, USA) plate reader. Carbachol (100 nM; Sigma, Spain) was used as a positive control for the assay and the background signal was determined by measuring fluorescence in wells containing non-transfected cells. […]

[4] = biological target: T1, chicken PTH3R; test: intracellular Ca^2+ accumulation in HEK293 cells transfected with chicken PTH3R (Fluo-4 NW); format: cell-based; conditions: HEK293, Fluo-4 NW; 1 μM and 100 nM of each peptide
Protocol: as §1, with “The transfection complex was incubated for 40 min at room temperature before adding to the cells which were left to grown for 72 hours with daily changes of complete medium. Selection of the stably transfected clones was performed with complete medium supplemented with 800 μg/ml of Geneticin (G418 sulphate, GibcoBRL) and 250 μg/ml sterile filtered 1:100 amphotericin B solution (Sigma, Spain).” left out
as §5

[5] = test system: Zebrafish PTH1R; conditions: N-terminal peptides; ref [8],[10]; cited from earlier work
Excerpt: Chicken PTHRs are activated by PTH-family peptides in a dose-dependent manner. […] Mammalian PTH1R is activated by both PTH and PTHrP which have similar potency and stimulate both cAMP and iCa^2+ production.

T2 sequence (C7S302 1-538): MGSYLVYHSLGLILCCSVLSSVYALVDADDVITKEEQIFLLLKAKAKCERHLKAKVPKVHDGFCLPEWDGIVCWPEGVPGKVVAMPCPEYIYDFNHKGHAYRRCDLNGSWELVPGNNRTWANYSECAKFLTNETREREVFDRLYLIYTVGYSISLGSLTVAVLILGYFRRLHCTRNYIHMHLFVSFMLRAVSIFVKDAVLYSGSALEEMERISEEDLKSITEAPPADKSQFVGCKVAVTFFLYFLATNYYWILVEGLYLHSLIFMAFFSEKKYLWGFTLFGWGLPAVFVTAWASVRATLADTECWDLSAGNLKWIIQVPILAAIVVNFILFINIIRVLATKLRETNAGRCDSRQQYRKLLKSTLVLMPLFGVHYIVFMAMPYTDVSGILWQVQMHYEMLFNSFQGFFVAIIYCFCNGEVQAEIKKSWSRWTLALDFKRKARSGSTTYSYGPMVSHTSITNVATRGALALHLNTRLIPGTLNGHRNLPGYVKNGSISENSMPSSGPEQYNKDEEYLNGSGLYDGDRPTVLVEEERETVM

Row | Compound | cAMP production with PTH3R, human peptide, in words ([1]; human peptides at 10 nM and 100 nM, single experiment in triplicate) | accumulation of cAMP with PTH1R, human peptide, in words [2] | intracellular Ca^2+ accumulation with PTH1R, in words [3] | stimulation of PTH3R cAMP accumulation, comparison in words [1] | Emax (maximal cAMP production, PTH3R) [1] | Emax (maximal cAMP production, PTH1R) [2] | stimulation of PTH3R cAMP accumulation, comparison in words ([1]; listed as PTHrP(1–34)) | release of intracellular Ca^2+ on PTH3R activation, in words [4] | stimulation of PTH1R cAMP accumulation, comparison in words ([2]; chicken 1–34 peptides, 0.1 nM to 100 nM) | activation of zebrafish PTH1R, in words [5] | cAMP accumulation, human peptide on chicken PTH1R ([2]; 10^-7 M, mean ± SEM of a single experiment carried out in triplicate (Additional file 4))
1 | Human TIP39: human TIP39 (Sigma, Spain), tuberoinfundibular peptide 39 [reference compound] | only negligible cAMP production was obtained for PTH3R | failed to induce accumulation of cAMP with PTH1R | – | – | – | – | – | – | – | – | –
2 | CSCC[C@H](NC(=O)[C@H](CC(C)C)NC(=O)[C@H](CCC(N)=O)NC(=O)[C@H](CCSC)NC(=O)[C@H](CCC(=O)O)NC(=O)[C@H](CO)NC(=O)[C@@H](NC(=O)[C@@H](N)CO)C(C)C)C(=O)N[C@@H](Cc1c[nH]cn1)C(=O)N[C@@H](CC(N)=O)C(=O)N[C@@H](CC(C)C)C(=O)NCC(=O)N[C@@H](CCC(=O)O)C(=O)N[C@@H](Cc1c[nH]cn1)C(=O)N[C@@H](CCCNC(=N)N)C(=O)N[C@@H](Cc1c[nH]cn1)C(=O)N[C@H](C(=O)N[C@H](C(=O)N[C@@H](CCC(=O)O)C(=O)N[C@@H](CCCNC(=N)N)C(=O)N[C@@H](CCC(N)=O)C(=O)N[C@@H](CC(=O)O)C(=O)N[C@@H](Cc1c[nH]c2ccccc12)C(=O)N[C@@H](CC(C)C)C(=O)N[C@@H](CCC(N)=O)C(=O)N[C@@H](CCSC)C(=O)N[C@@H](CCCCN)C(=O)N[C@@H](CC(C)C)C(=O)N[C@@H](CCC(N)=O)C(=O)N[C@@H](CC(=O)O)C(=O)N[C@H](C(=O)N[C@@H](Cc1c[nH]cn1)C(=O)N[C@@H](CO)C(=O)N[C@@H](C)C(=O)O)C(C)C)C(C)C)[C@@H](C)O [PTH] (H-SVSEMQLMHNLGEHRHTVERQDWLQMKLQDVHSA-OH; N-terminus and C-terminus assumed) | – | – | had no effect | Stimulation of PTH3R was highest for PTHrP and PTH | 144.7 ± 20.02 pmol/well | 6.03 ± 0.78 pmol/well | – | – | – | – | –
3 | CC[C@H](C)[C@H](NC(=O)[C@H](CC(C)C)NC(=O)[C@H](CC(N)=O)NC(=O)[C@H](CCC(N)=O)NC(=O)[C@H](CC(C)C)NC(=O)[C@H](Cc1ccccc1)NC(=O)[C@@H](NC(=O)[C@H](CCCNC(=N)N)NC(=O)[C@H](CCCNC(=N)N)NC(=O)[C@H](CCCNC(=N)N)NC(=O)[C@H](CC(C)C)NC(=O)[C@H](CC(=O)O)NC(=O)[C@H](CCC(N)=O)NC(=O)[C@@H](NC(=O)[C@H](CO)NC(=O)[C@H](CCCCN)NC(=O)CNC(=O)[C@H](CCCCN)NC(=O)[C@H](CC(=O)O)NC(=O)[C@H](Cc1c[nH]cn1)NC(=O)[C@H](CC(C)C)NC(=O)[C@H](CC(C)C)NC(=O)[C@H](CCC(N)=O)NC(=O)[C@H](Cc1c[nH]cn1)NC(=O)[C@H](CCC(=O)O)NC(=O)[C@H](CO)NC(=O)[C@@H](NC(=O)[C@H](C)N)C(C)C)[C@@H](C)CC)[C@@H](C)CC)C(=O)N[C@@H](CCC(=O)O)C(=O)NCC(=O)N[C@H](C(=O)N[C@@H](CC(N)=O)C(=O)N[C@H](C(=O)N[C@@H](C)C(=O)O)[C@@H](C)O)C(C)C [PTHrP] (H-AVSEHQLLHDKGKSIQDLRRRIFLQNLIEGVNTA-OH; N-terminus and C-terminus assumed) | – | – | stimulated intracellular Ca^2+ accumulation on activation of PTH1R; also recorded: efficiently stimulated iCa^2+ accumulation with PTH1R | Stimulation of PTH3R was highest for PTHrP and PTH | 119.9 ± 11.76 pmol/well | 17.21 ± 1.84 * pmol/well | had overlapping potency with PTH(1–34) for the latter receptor | not PTH3R | produced the highest stimulation of PTH1R (p < 0.05) | – | –
4 | Human PTH: human PTH(1–34) [reference compound] | – | stimulated cAMP production with an apparently similar potency to chicken PTHrP | – | – | – | – | – | – | – | activated similarly | 21.4 ± 10 pmol/well
